Laboratory results published in ChEMBL document CHEMBL1123048 (J Med Chem, 1985).
pKi: −log10 of the molar value. In brackets after ≈: the same amount, converted by molar mass.

Experiments:
[1] = target: T1, Adenosine receptor A1 (Rattus norvegicus, UniProt P25099)
T1 sequence (P25099 whole entry): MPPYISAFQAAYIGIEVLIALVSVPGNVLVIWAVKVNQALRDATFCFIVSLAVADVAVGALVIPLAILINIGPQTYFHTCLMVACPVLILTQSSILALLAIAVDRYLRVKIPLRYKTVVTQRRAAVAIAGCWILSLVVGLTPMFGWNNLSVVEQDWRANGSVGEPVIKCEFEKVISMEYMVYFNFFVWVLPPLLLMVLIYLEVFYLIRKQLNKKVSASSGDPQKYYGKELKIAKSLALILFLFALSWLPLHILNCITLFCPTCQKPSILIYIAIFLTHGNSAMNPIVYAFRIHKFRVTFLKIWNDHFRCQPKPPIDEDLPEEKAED
Description: Binding affinity towards adenosine A1 receptor in rat cerebral cortical membranes by [3H]cyclohexyladenosine displacement.

[2] = Solubility in 0.1 M sodium phosphate, and at pH 7.2; format: physicochemical; conditions: 0.1 M sodium phosphate buffer
[3] = target: T1, Adenosine receptor A1; test: Binding affinity towards adenosine A1 receptor in rat cerebral cortical membranes with 1 nM [3H]cyclohexyladenosine; format: cell membranes
[4] = target: Adenosine A2 receptor (Cavia porcellus)
[5] = target: Adenosine A2 receptor (Cavia porcellus); test: Binding affinity against A2 adenosine receptor in [3H]adenine-labeled guinea pig cerebral cortical slices

Row | pKi [1] | Ki [4] [nM] | Structure (SMILES) | further results
1 | 7.62 |  | CCCn1c(=O)c2nc(-c3ccc(OCC(=O)NCCNC(C)=O)cc3)[nH]c2n(CCC)c1=O | 
2 | 7.49 |  | CCCn1c(=O)c2nc(-c3ccc(OCC(=O)N(C)C)cc3)[nH]c2n(CCC)c1=O | 
3 |  | 30 | CCCn1c(=O)c2nc(-c3ccc(OCC(=O)OCC)cc3)[nH]c2n(CCC)c1=O | 
4 | 7.27 |  | CCCn1c(=O)c2nc(-c3ccc(OCC(=O)NCCNC(=O)CCCCC4SCC5NC(=O)NC54)cc3)[nH]c2n(CCC)c1=O (stereo not drawn) | Ki [5]: 180 nM
5 | 7.23 |  | CCCn1c(=O)c2nc(-c3ccc(OCC(=O)NN)cc3)[nH]c2n(CCC)c1=O | 
6 | 8.30 | 470 | CCCn1c(=O)c2nc(-c3ccc(OCC(=O)NCCCCCCCCN)cc3)[nH]c2n(CCC)c1=O | 
7 | 8.39 | 62 | CCCn1c(=O)c2nc(-c3ccc(OCC(=O)Nc4ccc(O)cc4)cc3)[nH]c2n(CCC)c1=O | 

The next lines start with the molecule.

Row | Structure (SMILES) | pKi [1] | Ki [4] [nM] | further results
8 | CCCn1c(=O)c2[nH]c(-c3ccc(OCC(N)=O)cc3)nc2n(CCC)c1=O |  |  | solubility [2]: 26 µM (≈ 10 µg/mL); pKi [3]: 8.22
9 | CCCn1c(=O)c2nc(-c3ccc(OCC(=O)ON4C(=O)CCC4=O)cc3)[nH]c2n(CCC)c1=O |  | 40 | 
10 | CCCn1c(=O)c2nc(-c3ccc(O)cc3)[nH]c2n(CCC)c1=O |  |  | solubility [2]: 3.2 µM (≈ 1.05 µg/mL)
11 | Cn1c(=O)c2nc(-c3ccc(OCC(=O)O)cc3)[nH]c2n(C)c1=O | 6.30 | 430 | 
12 | CCCn1c(=O)c2nc(-c3ccc(OCC(=O)N(C(=O)NC4CCCCC4)C4CCCCC4)cc3)[nH]c2n(CCC)c1=O | 7.02 |  | 
13 | CC(=O)O.CCCn1c(=O)c2nc(-c3ccc(OCC(=O)NCCN(CC)Cc4ccc(O)cc4)cc3)[nH]c2n(CCC)c1=O | 8.66 | 320 | 
14 | CCCn1c(=O)c2nc(-c3ccc(OCC(=O)Nc4ccc(C)cc4)cc3)[nH]c2n(CCC)c1=O | 7.44 | 750 | 
15 | Cc1ccc(NC(=O)COc2ccc(-c3nc4c(=O)n(C)c(=O)n(C)c4[nH]3)cc2)cc1 | 7.59 |  | 
16 | CCCn1c(=O)c2[nH]c(-c3ccc(OCC(=O)NCCN)cc3)nc2n(CCC)c1=O [XANTHINE AMINE CONGENER] |  |  | solubility [2]: 90 µM (≈ 38.6 µg/mL)
